# In patent US9872859B2, “Materials and methods for targeting therapeutic compositions to gut-associated lymphoid tissue (GALT)” (THE FLORIDA INTERNATIONAL UNIVERSITY BOARD OF TRUSTEES, priority 2016, dated 2018):
# What was measured:
# [1] = tested on: HIV-1 1Ba-L; assay: Anti-HIV activity in HIV-infected primary human macrophages (p24 ELISA); format: cell-based; details: 70 ug/ml
# Excerpt: The nanodrug was further investigated for anti-HIV activity in primary human macrophage and M-cell culture model, respectively. Human peripheral blood mononuclear cells (PBMC) were isolated from healthy donor and differentiated to macrophages as per previously published protocol^23. Briefly, PBMC were isolated with Ficoll-Hypaque (Pharmacia) gradient and cells were allowed to differentiate for 7 days in the presence of human macrophage colony stimulating factor (MCSF, Sigma) to macrophages. Following 7 days of incubation, macrophages were infected with HIV-1 1Ba-L (NIH AIDS research and reference reagent program. Cat#510) (100 ng/ml) and incubated for 24 hrs. The next day, cells were thoroughly washed to get rid of any unattached virus particle and fresh media was added. At the same time, same concentration (70 ug/ml) of nanodrug and unformulated drug (EFV) were added to these cells separately. The HIV infected macrophages were served as control. The nanodrug/EFV drug treated cells were monitored for up to 10 days along with infected control cells. The cell supernatant was collected at day 0, 1, 3, 5, 7 and 10 days post treatment. The viral p24 level in the supernatant was measured with p24 ELISA assay (Cat. #0801200, Zeptometrix, USA). The minimum assay detection limit for p24 antigen by ELISA was 7.8 pg/ml as provided by the manufacturer. […]
# [2] = tested on: HIV-1Ba-L; assay: Anti-HIV activity in in vitro M-cell culture model with HIV-infected Raji cells (p24 ELISA); format: cell-based; details: 70 ug/ml; for HIV replication (p24 level in culture supernatant) over time: infected Raji cells
# Experimental: The nanodrug was further investigated for anti-HIV activity in primary human macrophage and M-cell culture model, respectively. Simultaneously, a parallel anti-HIV activity study was set up in an in vitro model of M-cell. In this model, Raji cells were exposed with HIV-1Ba-L at the concentration of (100 ng/ml) for 24 hrs in a co-culture and then washed from unattached viral particles^24,25. Following that, same concentration (70 ug/ml) of nanodrug and EFV were added to M-cell culture model separately. […] The untreated Raji cells were kept as a control for all the experiments related to drug activity. In the M-cell culture model, infected Raji cells were also treated with EFV to compare with nanodrug. The effect of nanodrug on HIV replication was measured for up to 10 days post treatment in culture supernatant.
smiles,measurement,setting,value
"O=C1Nc2ccc(Cl)cc2[C@@](C#CC2CC2)(C(F)(F)F)O1 [EFV, efavirenz]",HIV replication (p24 level in culture supernatant) over time,[1]; day 0-10 post treatment,immediate inhibition of viral replication on day 1 and following that there was increase of viral p24 level
same,p24 level at end of experiment,[1]; day 10,increased up to the level of untreated cells
same,p24 level within day 10,[2]; day 10,increased closer to the level of untreated cells
same,HIV replication (p24 level in culture supernatant) over time,[2]; up to day 10,immediate reduction of viral replication
same,HIV replication (p24 level in culture supernatant) over time,"[2]; up to day 10, listed as free EFV","immediate decrease in viral replication as expected; however, rebound of viral p24 level within day ten"
